Measured values reported in PubChem BioAssay (NCI).
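Step 1: Grow cells in 96-well plates. Step 2: Expose to compound for 48 hours at 5 concentrations. Step 3: Interpolate endpoints linearly; if unreached, use highest concentration. GI50: concentration for 50% inhibition of growth. The concentration for full growth arrest is given as TGI.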

How the values were obtained:
Experiment in all cases: NCI-60 cell line screen, 48 h
[1] = tested on: A549 NSCLC
[2] = tested on: BT-549 breast
[3] = tested on: COLO 205 colon
[4] = tested on: DU-145 prostate
[5] = tested on: HOP-62 NSCLC
[6] = tested on: PC-3 prostate
[7] = tested on: SF-295 CNS
[8] = tested on: SK-MEL-2 melanoma
[9] = tested on: TK-10 renal
[10] = tested on: U251 CNS

O=C1OC2(c3ccc(O)cc3Oc3cc(O)ccc32)c2c1c(-c1ccccc1)c(-c1ccccc1)c(-c1ccccc1)c2-c1ccccc1
TGI [1]: > 100 µM
TGI [2]: 53.8 µM
TGI [3]: 35.2 µM
TGI [4]: 35.2 µM
TGI [5]: 67.8 µM
TGI [6]: 32.7 µM
TGI [7]: 49.5 µM
TGI [8]: 36.3 µM
TGI [9]: 59.6 µM
TGI [10]: 31.5 µM

O=C1c2ccccc2C(=O)c2c(O)c(O)cc(O)c21
TGI [1]: > 100 µM
TGI [3]: > 100 µM
TGI [5]: 69.9 µM
TGI [7]: > 100 µM
TGI [8]: 69.1 µM
TGI [9]: > 100 µM
TGI [10]: > 100 µM

COc1cc2c3c(n(C4CCNCC4)c(=O)c2cc1OC)-c1cc2c(cc1C3=O)OCO2
GI50 [3]: 0.986 µM
TGI [3]: 2.33 µM
GI50 [4]: 0.423 µM
TGI [4]: 1.55 µM
GI50 [8]: 20.1 µM
TGI [8]: > 100 µM
GI50 [9]: 1.8 µM
TGI [9]: 3.65 µM
GI50 [10]: 0.279 µM
TGI [10]: 2.01 µM

CCCCCCCCCCCCCCCCOCCCOP(=O)(O)C1CCCN(O)C1=O (stereo not given)
GI50 [1]: 3.56 µM
TGI [1]: 14.4 µM
GI50 [3]: 0.548 µM
TGI [3]: 13.3 µM
GI50 [4]: 2.53 µM
TGI [4]: > 100 µM
GI50 [5]: 0.837 µM
TGI [5]: 18.6 µM
GI50 [6]: 0.468 µM
TGI [6]: 13.6 µM
GI50 [7]: 2.44 µM
TGI [7]: 11.3 µM
GI50 [8]: 5.95 µM
TGI [8]: 24.6 µM
GI50 [9]: 0.738 µM
TGI [9]: 23.4 µM
GI50 [10]: 0.489 µM
TGI [10]: 15.3 µM

NC(=O)c1cc(C2OC(CO)C(O)C2O)nn1-c1ccc([N+](=O)[O-])cc1 (stereo not given)
TGI [1]: > 100 µM
TGI [3]: > 100 µM
TGI [5]: > 100 µM
TGI [7]: > 100 µM
TGI [8]: > 100 µM
TGI [9]: > 100 µM
TGI [10]: > 100 µM

COc1ccc(/C=C/[N+](=O)[O-])cc1
TGI [3]: > 100 µM
TGI [4]: 20.3 µM
TGI [5]: > 100 µM
TGI [7]: 7.7 µM
TGI [8]: 52.7 µM
TGI [9]: 27 µM
TGI [10]: 19.1 µM

COc1cc2c3c(c4cc(OC)c(OC)cc4c2cc1OC)[C@H](O)[C@@H]1CCCN1C3
TGI [1]: 2.56 µM
TGI [2]: 9.63 µM
TGI [3]: 0.154 µM
TGI [4]: 1.45 µM
TGI [5]: 0.57 µM
TGI [6]: 1.98 µM
TGI [7]: 1.64 µM
TGI [8]: 0.234 µM
TGI [9]: 1.55 µM
TGI [10]: 2.5 µM

N#CC1=C(N)Nc2nc3ccccc3n2C1c1ccccc1 (stereo not given)
TGI [1]: > 100 µM
TGI [2]: 62.4 µM
TGI [3]: > 100 µM
TGI [4]: > 100 µM
TGI [5]: > 100 µM
TGI [6]: > 100 µM
TGI [7]: > 100 µM
TGI [8]: > 100 µM
TGI [10]: > 100 µM

S=C1NN=C2C(=C3CCCC4C5CCCCC5N2C34)N1 (stereo not given)
TGI [1]: > 100 µM
TGI [2]: > 100 µM
TGI [3]: > 100 µM
TGI [4]: > 100 µM
TGI [5]: > 100 µM
TGI [7]: > 100 µM
TGI [9]: > 100 µM

COC1/C=C\OC2(C)Oc3c(C)c(O)c4c(O)c(c(CN(C)C)c(O)c4c3C2=O)NC(=O)/C(C)=C\C=C/C(C)C(O)C(C)C(O)C(C)C(OC(C)=O)C1C (stereo not given)
TGI [1]: > 100 µM
TGI [2]: > 100 µM
TGI [3]: 35.4 µM
TGI [4]: > 100 µM
TGI [5]: > 100 µM
TGI [6]: 72 µM
TGI [7]: > 100 µM
TGI [8]: 42.5 µM
TGI [9]: > 100 µM
TGI [10]: 42.6 µM

COc1ccc2c(c1)/C(=C\c1cccc(/C=C3/C(=O)Nc4ccc(OC)cc43)n1)C(=O)N2
TGI [1]: > 100 µM
TGI [2]: 6.39 µM
TGI [3]: 2.04 µM
TGI [4]: 9.73 µM
TGI [5]: 5.07 µM
TGI [6]: 8.91 µM
TGI [7]: 30.3 µM
TGI [8]: 15.5 µM
TGI [9]: 6.57 µM
TGI [10]: 5.83 µM

COC(=O)c1nc2c3c(cccc3c1C(=O)OC)Nc1ccccc1-2
TGI [1]: > 100 µM
TGI [2]: > 100 µM
TGI [3]: > 100 µM
TGI [4]: > 100 µM
TGI [5]: 71.7 µM
TGI [6]: 82.1 µM
TGI [7]: > 100 µM
TGI [8]: 71.8 µM
TGI [9]: > 100 µM
TGI [10]: > 100 µM

C[C@H](CCC1=NCCN1)[C@H]1CC[C@H]2[C@@H]3CC[C@@H]4C[C@H](O)CC[C@]4(C)[C@H]3CC[C@]12C
TGI [1]: 22.4 µM
TGI [2]: 33.4 µM
TGI [3]: 3.18 µM
TGI [4]: 35.8 µM
TGI [5]: 20.9 µM
TGI [6]: 28.4 µM
TGI [7]: 10.4 µM
TGI [8]: 21.3 µM
TGI [9]: 23.2 µM
TGI [10]: > 45.2 µM

O=C(O)Cc1[nH]cnc1C(=O)O
TGI [1]: > 100 µM
TGI [2]: > 100 µM
TGI [3]: > 100 µM
TGI [4]: > 100 µM
TGI [5]: > 100 µM
TGI [6]: > 100 µM
TGI [7]: > 100 µM
TGI [8]: > 100 µM
TGI [9]: > 100 µM
TGI [10]: > 100 µM

O=C(O)CNCc1c2ccccc2[n+]([O-])c2ccccc12
TGI [1]: > 100 µM
TGI [3]: > 100 µM
TGI [5]: > 100 µM
TGI [7]: > 100 µM
TGI [8]: > 100 µM
TGI [9]: > 100 µM
TGI [10]: > 100 µM

CSc1sc(=S)sc1SC
TGI [1]: > 100 µM
TGI [3]: > 100 µM
TGI [5]: > 100 µM
TGI [7]: > 100 µM
TGI [8]: > 31.6 µM
TGI [10]: > 100 µM

O=C(O)C(Br)Cc1ccc2c(c1)OCO2 (stereo not given)
TGI [1]: > 100 µM
TGI [3]: > 100 µM
TGI [5]: > 100 µM
TGI [7]: > 100 µM
TGI [8]: > 100 µM
TGI [10]: > 100 µM

C#C[C@@]1(O)[C@@H](CO)O[C@@H](n2cc(F)c3c(N)ncnc32)[C@@H]1O
GI50 [1]: 0.377 µM
TGI [1]: 2.64 µM
GI50 [2]: 0.843 µM
TGI [2]: 4.18 µM
GI50 [3]: 0.263 µM
TGI [3]: 1.3 µM
GI50 [4]: 0.354 µM
TGI [4]: 13.4 µM
GI50 [5]: 0.571 µM
TGI [5]: 7.79 µM
GI50 [6]: 0.293 µM
TGI [6]: 3.24 µM
GI50 [7]: 0.653 µM
TGI [7]: 2.33 µM
GI50 [8]: 0.446 µM
TGI [8]: 2.87 µM
GI50 [9]: 0.736 µM
TGI [9]: 6.56 µM
GI50 [10]: 0.631 µM
TGI [10]: 11.6 µM

CCOn1cc(C2=C(c3c[nH]c4ccccc34)C(=O)NC2=O)c2ccccc21
GI50 [1]: < 0.0284 µM
TGI [1]: 22.7 µM
GI50 [3]: < 0.0439 µM
GI50 [4]: 0.163 µM
TGI [4]: 16.9 µM
GI50 [5]: < 0.01 µM
TGI [5]: 18.5 µM
GI50 [6]: < 0.0389 µM
TGI [6]: 17.3 µM
GI50 [7]: 0.0156 µM
TGI [7]: 0.0443 µM
GI50 [8]: 12.2 µM
TGI [8]: 25.8 µM
GI50 [9]: 0.0322 µM
TGI [9]: 0.198 µM
GI50 [10]: 0.488 µM
TGI [10]: 19.5 µM

C/C(=C\COP(=O)(O)OP(=O)(O)O)CC/C=C(\C)CNc1ccc([N+](=O)[O-])cc1
TGI [1]: > 100 µM
TGI [3]: > 100 µM
TGI [4]: > 100 µM
TGI [5]: > 100 µM
TGI [6]: > 100 µM
TGI [7]: > 100 µM
TGI [8]: > 100 µM
TGI [9]: > 100 µM
TGI [10]: > 100 µM

CSc1ccc(-c2cc(-c3nc4ccccc4[nH]3)nc3[nH]c(-c4nc5ccccc5[nH]4)cc(=O)c23)cc1
TGI [1]: > 100 µM
TGI [2]: > 100 µM
TGI [3]: > 100 µM
TGI [4]: > 100 µM
TGI [5]: > 100 µM
TGI [6]: > 100 µM
TGI [7]: > 100 µM
TGI [8]: > 100 µM
TGI [9]: > 100 µM
TGI [10]: > 100 µM

Nc1nncs1
TGI [1]: 4980 µM
TGI [2]: > 5000 µM
TGI [3]: > 3840 µM
TGI [4]: > 5000 µM
TGI [5]: 1700 µM
TGI [6]: > 5000 µM
TGI [7]: > 5000 µM
TGI [8]: > 5000 µM
TGI [9]: > 5000 µM
TGI [10]: > 5000 µM
